Holding throughout (format): in vivo
For series [1], the system named is male C57BL/6J-ob/ob mice. In words: Glucose tolerance test in obesity model mice, administration for 4 weeks. The following applies: for AUC of plasma glucose levels in glucose tolerance test: oral glucose 2 g/kg, 0-120 min, control 29863. On the procedure: (§1) The following Examples 1 to 3 were carried out in an obesity model mouse, male C57BL/6J-ob/ob mice (12-17 week old, 40-60 g) to study the effect of Compound (a) on glucose metabolism in mice.
(§2) Hydroxypropylmethyl cellulose solution (0.5% w/v, Shin-Etsu Chemical Co., Ltd) or Compound (a) or (b) suspended in the solution were orally administered at 25, 50 or 100 mg/kg twice a day (8:00-10:00, 16:30-18:00) for 4 weeks. Food was removed in the morning (8:00-9:00) of the last day of administration. Mice were kept under fasting until the end of glucose tolerance test. In this period, the mice were allowed free access to water. The next day, glucose tolerance test was carried out in the afternoon (13:00-16:00). Blood was collected from tail veins just before and at 15, 30, 60 and 120 minutes after oral administration of glucose (2 g/kg) to examine plasma glucose levels. AUC (area under the curve) was calculated by the trapezoidal method from the graphs made with obtained values (FIG. 1). AUCs in mice treated with Compound (a) at 25 mg/kg, 50 mg/kg and 100 mg/kg were 25610 mg·min/dL, 20315 mg·min/dL and 15848 mg·min/dL, respectively. AUC in control mice (dosed with 0.5% hydroxypropylmethyl cellulose solution) was 29863 mg·min/dL.

Series [2] concerns male C57BL/6J-ob/ob mice. Description: Glucose tolerance test in obesity model mice, short-term administration. The following applies: 100 mg/kg oral gavage. As to the method:
as §1
Compound (a) was administered to mice for short term and then glucose tolerance test was performed. In the morning (8:00-10:00) of the previous day of the test, hydroxypropylmethyl cellulose solution (0.5% w/v, Shin-Etsu Chemical Co., Ltd) or Compound (a) at 100 mg/kg suspended in the solution was administered by oral gavage. Food was removed just after the administration. Mice were kept under fasting until the end of glucose tolerance test. In this period, the mice were allowed free access to water. The oral administration was also performed in the evening of the previous day of the test (17:00-18:00) and in the morning of the day of the test (8:00-9:00). Glucose tolerance test was carried out in the afternoon (13:00-16:00), and AUC was calculated as described in Example 1 (FIG. 3).

Series [3] concerns male C57BL/6J-ob/ob mice. Description: Body weight change during the 4-week dosing period. The following applies: 25, 50 or 100 mg/kg orally twice a day for 4 weeks (FIG. 2). As to the method:
as §1, §2

Series [4] relates to male C57BL/6J-ob/ob mice. Description: Glucose tolerance test in obesity model mice, administration for 1 week. The following applies: 100 mg/kg orally twice a day for a week. On the procedure:
as §1
Hydroxypropylmethyl cellulose solution (0.5% w/v, Shin-Etsu Chemical Co., Ltd) or Compound (b) suspended in the solution were orally administered at 100 mg/kg twice a day (8:00-10:00, 16:30-18:00) for a week. Food was removed in the morning (8:00-9:00) of the last day of administration. Mice were kept under fasting until the end of glucose tolerance test. In this period, the mice were allowed free access to water. The next day, glucose tolerance test was carried out in the afternoon (13:00-16:00) and then AUC was calculated as described in Example 1 (FIG. 4).

Setting [5] is: 100 mg/kg orally twice a day for 4 weeks.

In the case of `CC(C)(C)S(=O)(=O)N[C@H]1CC[C@H](C(=O)Nc2ccc(C(F)(F)F)cn2)CC1` [Compound (a)], the “AUC of plasma glucose levels in glucose tolerance test” value in series [1] (25 mg/kg orally twice a day for 4 weeks) is on record as 25610 mg·min/dL; in series [1] (50 mg/kg orally twice a day for 4 weeks), 20315 mg·min/dL; in series [1] (setting [5]) it was 15848 mg·min/dL; in series [2] (three doses (morning and evening of previous day, morning of test day), control 15033) it was 22423 mg·min/dL. Besides, the “AUC compared to control mice” value in series [1] (setting [5]) was “statistically significant decrease”; in series [2] (three doses, short term) it was “statistically significant decrease”. In series [1] (25, 50, 100 mg/kg orally twice a day for 4 weeks), the “AUC change across doses” value is “decreased with dose-dependent manner”. For the same compound, the “Change in body weight during the dosing period” value in series [3] is listed as “no statistically significant change”.
Regarding `CCS(=O)(=O)N[C@H]1CC[C@H](C(=O)Nc2ccc(N3C[C@@H](C)O[C@@H](C)C3)cc2)CC1` [Compound (b)], the “AUC compared to control mice” value in series [4] is “statistically significant decrease”. In series [4] (control 22532), the “AUC of plasma glucose levels in glucose tolerance test” value is listed as 15546 mg·min/dL.

The values are drawn from patent US20100035996A1, “GLUCOSE METABOLISM STIMULATING AGENT” (Shionogi & Co Ltd, priority 2006, published 2010).
